Data taken from US8541240B2, “Colorimetric and fluorimetric fluoride sensing” (Florida State University Research Foundation, Inc., priority 2010, dated 2013).

Key:
[1] = Isothermal titration calorimetry (ITC), F^− recognition; type: binding; settings: for K1 (association constant) / K2 (association constant, second binding process) / ΔG1 / ΔG2: X^− = F^−, DMSO, 298 K
Method: (§1) Isothermal titration calorimetry (ITC) studies were conducted on a MICROCAL VP-ITC ultra-sensitive isothermal titration microcalorimeter. The VP-ITC unit, with a precise temperature control set at 25.0±0.1° C., directly measured heat evolved or absorbed in solution as a result of […] of reactant. For control, a reference cell was filled with dimethyl sulfoxide (DMSO). Titrations were run at 25° C.
(§2) Before the experiment, all the samples were degassed at 25° C. for 10 minutes us the THERMOVAC (a vacuum thermostating system). Each of 40 injections of 6 μL of a halide solution was delivered into a solution (1 mM) of reagent LS over 12 seconds by a syringe spinning at 270 rpm, with a 240 second equilibration time between injections. The instrument was controlled by MICROCAL OBSERVER software comprising a 16-bit A/D converter board for data acquisition, and a second interface board for calorimetric control. Heats of dilution were taken into account using data from control experiments, in which DMSO was injected into reagent LS in DMSO solution.
From these experiments, it has been confirmed that a 1:[…] (reagent LS:F^− anion) type of stoichiometry occurs during F^− titration. Initially, π-anion-π interaction takes place, at concentrations up to one molar equivalent of F^− ion. At concentrations greater than one equivalent of F^−, the NH proton becomes directly involved in a second binding process through hydrogen bonding, a conclusion which is supported by the ^1H NMR experiments described above. The association constants for these two processes have been determined as follows: K1=4.11 10^4 M^−1 and K2=2.69 10^4 M^−1. […]

[2] = Isothermal titration calorimetry (ITC), Cl^− recognition; type: binding; settings: for K1 (association constant) / ΔG1: X^− = Cl^−, ITC, DMSO, 298 K
Method: as §1, §2
(§3) Using these characteristic ITC patterns, one could determine whether a given test solution contains F^− only or, alternatively, whether the test solution contains is a mixture of F^− with another halide anion.
In addition to the above species, the same experimental procedure was followed with control reagent CR.

[3] = Isothermal titration calorimetry (ITC), Br^− recognition; type: binding; settings: solution with DMSO
Method: as §1, §2, §3

[4] = Isothermal titration calorimetry (ITC), I^− recognition; type: binding; settings: solution with DMSO
Method: as §1, §2, §3

[5] = Fluorescence spectroscopy during F^− titration; settings: for selectivity for F^− over other halide ions: color and emission spectra, Cl^−, Br^−, I^− up to 30 molar equivalents, DMSO
From the text: (§4) Unless otherwise indicated, the following procedure was used for all examples involving titration experiments. Generally, titrant solutions comprising the fluoride receptor reagents (e.g., reagents N1, SR, and LR) were maintained at a concentration of 10 μm. Titrand solutions containing fluoride anion were 30 times more concentrated (e.g., 300 μm) to minimize dilution effects during titration. Unless otherwise indicated, the solvent for all solutions was dimethyl sulfoxide (DMSO).
Fluorescence spectroscopy was introduced to determine the sensitivity of NDI-based F^− ion sensors at very low concentrations. Fluorescence spectra were collected on a HORIBA JOBIN YVON FLUOROMAX-4 spectrofluorometer.

[6] = Visual color change and UV/Visible spectroscopy during F^− titration; settings: for visible color change during F^− titration: solvents with up to 15% H2O, orange ≦5 equiv, pink >5 equiv F^−
From the text: as §4
(§5) Several experiments were conducted to observe the visible color changes that occur when NDI-based receptor reagents N1, SR, and LR were titrated with solutions containing F^− ions. Titrations were carried out using F^− in a number of solvents, including aqueous dimethyl sulfoxide (DMSO), dimethylformamide (DMF), dimethylacetamide (DMAc), acetonitrile, acetone, and tetrahydrofuran, with each solution containing up to 15% of H2O. Otherwise, the titrations followed the standard titration procedure outlined above.
(§6) As indicated above, UV/Visible light (UV/Vis) spectra were recorded on a PerkinElmer Lambda-25 UV/Vis spectrophotometer. For each experiment, receptor N1, SR, and CR concentrations were maintained at 10 μM. Titration of the F^− ion was conducted using the standard titration procedure outlined above.

[7] = Visual color change and UV/Visible spectroscopy during titration with other anions
From the text: as §4, §5, §6
Similarly, FIG. 5, panel (c) is a representation of the data obtained when receptor reagent N1 was titrated with various other […], including Cl^−, Br^−, I^−, NO3^−, acetate anion (AcO^−), and H2PO4^−.

[8] = Fluoride anion sensing in toothpastes (UV/Vis); settings: 10 μM receptor, wet DMSO
Method: For the detection of F^− ion in toothpastes, small samples (1 gram) of each of two toothpastes (COLGATE anticavity fluoride toothpaste and ORAJEL toddler fluoride-free toothpaste) were extracted separately in 2 mL of aqueous DMSO. The COLGATE toothpaste contained 0.24% (w/v) NaF. Each resulting suspension was filtered to obtain colorless clear solution, which were separately added to 10 μM SR solutions.
The black trace represents SR without toothpaste; the light trace, SR with anticavity adult toothpaste containing 0.24% NaF; and the medium trace, SR with F^− free toddler toothpaste.

[9] = Cyclic voltammetry; type: physicochemical; settings: 1 mM in 0.1 M TBAPF6/DMF, Ag/AgCl reference, 100 mV/s, room temperature
Method: Cyclic voltammetry (CV) was conducted on a PRINCETON APPLIED RESEARCH (PAR) VERSASTAT-3-200 potentiostat/galvanostat instrument using a standard electrochemical cell, consisting of a Pt-disk working electrode, Pt-wire counter electrode, and Ag/AgCl (3 N aq. NaCl) reference electrode. CV was recorded at 1 mM of reagent N1 in 0.1 M TBAPF6/DMF supporting electrolyte solution at room temperature at 100 mV/s scan rate (FIG. 11).

**Q.** Which “K1 (association constant)” value [1] does the source give for O=C(Nc1cccc(NC(=O)c2cccc(C(=O)Nc3cccc(NC(=O)c4ccc(N5C(=O)c6ccc7c8c(ccc(c68)C5=O)C(=O)N(c5ccncc5)C7=O)cc4)c3)c2)c1)c1ccc(N2C(=O)c3ccc4c5c(ccc(c35)C2=O)C(=O)N(c2ccncc2)C4=O)cc1 [LR] here?
**A.** 41100 M⁻¹

**Q.** And the “K2 (association constant, second binding process)” value [1]?
**A.** 26900 M⁻¹

**Q.** What about the ΔG1 [1] of the same compound?
**A.** -6.29 kcal/M

**Q.** What about the ΔG2 [1] of the same compound?
**A.** -6.04 kcal/M

**Q.** And the “F^− binding in presence of excess Cl^− ion” value ([1]; excess of Cl^−)?
**A.** binds F^− selectively

**Q.** And the association constant Ka ([2]; Cl^−, solution with DMSO)?
**A.** 319 M⁻¹

**Q.** And the “K1 (association constant)” value [2]?
**A.** 319 M⁻¹

**Q.** And the ΔG1 [2]?
**A.** -3.42 kcal/M

**Q.** And the association constant Ka [3]?
**A.** 145 M⁻¹

**Q.** What about the association constant Ka [4] of the same compound?
**A.** 105 M⁻¹

**Q.** And the “selectivity for F^− over other halide ions” value [5]?
**A.** excellent selectivity

**Q.** What about the “visible color change during F^− titration” value [6] of the same compound?
**A.** immediately changed color in a distinct two-step pattern

**Q.** With O=C(Nc1cccc(N2C(=O)c3ccc4c5c(ccc(c35)C2=O)C(=O)N(c2ccncc2)C4=O)c1)c1cccc(C(=O)Nc2cccc(N3C(=O)c4ccc5c6c(ccc(c46)C3=O)C(=O)N(c3ccncc3)C5=O)c2)n1 [SR] as the compound, how does the “K1 (association constant)” value [1] read?
**A.** 9.03e+08 M⁻¹

**Q.** And the “K2 (association constant, second binding process)” value [1]?
**A.** 442000 M⁻¹

**Q.** What about the ΔG1 [1] of the same compound?
**A.** -12.20 kcal/M

**Q.** And the ΔG2 [1]?
**A.** -7.70 kcal/M

**Q.** And the “K1 (association constant)” value [2]?
**A.** 1730 M⁻¹

**Q.** And the ΔG1 [2]?
**A.** -4.41 kcal/M

**Q.** And the “selectivity for F^− over other halide ions” value [5]?
**A.** excellent selectivity

**Q.** What about the “amplification of a new peak at 465 nm” value ([5]; receptor 1 nM in DMSO, F^− 30 nM, 381 nm excitation) of the same compound?
**A.** 20 fold

**Q.** And the “visible color change during F^− titration” value [6]?
**A.** immediately changed color in a distinct two-step pattern

**Q.** And the “color change with F^− in the presence of Cl^−” value ([6]; titrated with F^− in the presence of 30 molar equivalents of Cl^−)?
**A.** showed the characteristic two-step color change associated with F^− even in the presence of Cl^−

**Q.** What about the “optical response to Cl^− alone” value ([7]; Cl^−, 30 molar equivalents) of the same compound?
**A.** no optical response

**Q.** And the “response to F^− containing toothpaste solution (COLGATE, 0.24% NaF)” value [8]?
**A.** turned light orange

**Q.** And the “response to F^−-free ORAJEL toothpaste” value [8]?
**A.** did not change the spectrum of the receptor

**Q.** Which results are given for O=C1c2ccc3c4c(ccc(c24)C(=O)N1c1ccncc1)C(=O)N(c1ccncc1)C3=O [N1]?
**A.** K1 (association constant) [1]: 8470 M⁻¹; ΔG1 [1]: -5.36 kcal/M; K1 (association constant) [2]: 53 M⁻¹; ΔG1 [2]: -2.35 kcal/M; increase of the 465 nm emission peak ([5]; receptor 10 μM in DMSO, 30 equiv. of F^−): 5.5 fold; visible color change during F^− titration [6]: immediately changed color in a distinct two-step pattern; optical response to other anions ([7]; Cl^−, Br^−, I^−, NO3^−, AcO^−, H2PO4^−, UV/Vis): did not show any optical response; E1 ½, one-electron reduction to radical anion [9]: −342 mV; E2 ½, reduction to dianion [9]: −804 mV

**Q.** What does the source list for O=C(Nc1cccc(NC(=O)c2cccc(C(=O)Nc3cccc(NC(=O)c4ccncc4)c3)c2)c1)c1ccncc1 [CR, reference compound]?
**A.** K1 (association constant) [1]: 259 M⁻¹; ΔG1 [1]: -3.28 kcal/M; K1 (association constant) [2]: 100 M⁻¹; ΔG1 [2]: -2.71 kcal/M; UV/Vis spectroscopic / colorimetric response to F^− titration ([6]; receptor 10 μM, DMSO): virtually no colorimetric response; visible color change in response to anions ([7]; any anion): did not change color in response to any anion
